Consider 2 compounds from US20210008161A1, “METHODS AND COMPOSITIONS FOR IMPROVED HOMOLOGY DIRECTED REPAIR” (CRISPR THERAPEUTICS AG, priority 2019, published 2021).

Experiment [1] relates to human LT-HSPCs administered to cKit mice. As to the kind of experiment: Erythroid cell enucleation in mouse bone marrow. It counts as in vivo. The note with it: bone marrow 16 weeks; vs cells treated with RNP-only or AAV-only; FIG. 28. Here is the method: The functionality of the hematopoietic compartment in recipient mice was evaluated by measuring erythroid cell enucleation in bone marrow collected at 16 weeks post-engraftment. Mammalian erythrocytes extrude their nucleus prior to entering circulation. Human CD34-expressing LT-HSPCs are expected to differentiate into erythrocytes following engraftment, however the efficiency of enucleation can be low. Assessment of erythroid cell enucleation provides a measure of the ability of edited CD34 expressing cells to differentiate into erythroid cells compared to the unedited controls (i.e., ability to differentiate into functional cell types). Percent enucleation was compared for LT-HSPCs gene edited with Cas9/gRNA RNP and AAV given pre-EP or post-EP. […] Additionally, levels of enucleation were compared for LT-HSPCs gene edited with RNP+AAV in the presence of i53 or Nu7441.

The next experiment has as its system CD34-expressing LT-HSPCs. In words: HDR insertion of AAV-delivered GFP donor into HBB locus (GFP fluorescence). It counts as cell-based, human. Here is the method:
Frozen CD34-expressing LT-HSPCs derived from plerixafor (i.e., Mozibil®)+GCSF-dual mobilized peripheral blood obtained from healthy human donors were purchased from a commercial vendor. LT-HSPCs were maintained in culture media comprised of the reagents shown in Table 4 and were incubated at 37° C., 5% carbon dioxide, 4% oxygen. […] 2×10^5 cells were edited with 3 μg Cas9 and 3 μg gRNA. The target gene sequence (including target sequence with PAM), R02 spacer sequence, and R02 sgRNA sequence are identified in Table 3.
The cells were transfected with a dsDNA homology donor encoding GFP under a SFFV promoter (SEQ ID NO: 60) that was delivered by AAV (SEQ ID NO: 56). […] The HDR efficiency was determined by measuring the level of GFP fluorescence in the cells following electroporation. To determine the effect of 53BP1 inhibition on HDR efficiency, the 53BP1 inhibitor i53 was introduced as an mRNA-encoded protein to the cells during electroporation with Cas9/gRNA RNP and AAV DNA that serves as a donor for homology directed repair.
The effect of 53BP1 inhibition on HDR efficiency was compared to other mRNA-encoded proteins that inhibit the NHEJ pathway. These included the proteins CYREN1 and CYREN2 that inhibit Ku70/80, a heterodimer that binds DNA blunt ends to prevent processing of 3′ single-stranded DNA tails necessary for HDR repair. Cells were electroporated with RNP, an AAV-GFP homology donor and mRNA encoding either i53 (mRNA ORF shown in SEQ ID NO: 69), CYREN1, or CYREN2.
The effect of treatment with i53 and Nu7441 was compared for improving efficiency of HDR repair of the HBB locus. Cells were treated with different doses of Nu7441 or with mRNA encoding i53 (ORF shown by SEQ ID NO: 69).

The test system of experiment [2] is patient-derived PBMCs. In words: SCD gene correction by HDR and INDEL frequency by NGS in patient-derived PBMCs. It counts as cell-based, human. The protocol:
It was further evaluated if editing of patient-derived PBMCs in the presence of i53 would yield high levels of correction of the HBB gene. […] The PBMCs were expanded in StemSpan SFEM II (1×)+StemSpan CC100 (1×)+Dexamethasone 1 μM+hEPO 2 IU/mL at 37° C. under normoxic conditions (20% O2 concentration). The cells were edited following five days of in vitro culture. […] On day 8, the cells were transferred to Phase 1 media, and differentiation to erythrocytes was performed through day 18 as described above. Efficiency of HDR at the HBB gene locus was evaluated on day 12 using the NGS assay described in Example 4. Also evaluated was the frequency of INDELs at the R02 cut-site as measured by NGS.

Experiment [3] deals with patient-derived PBMCs. As to the kind of experiment: Hemoglobin expression by HPLC in edited patient-derived PBMCs. It counts as cell-based, human. The note with it: FIG. 36. Here is the method:
Briefly, on day 18 post-editing, 1×10^6 cells were harvested, centrifuged, and washed with PBS. The cells were prepared for HPLC analysis. Hemoglobin variants were quantified in cell samples using reverse-phase HPLC chromatography and gradient elution. […] Thus, high levels of HDR achieved with i53 contribute to normalization of hemoglobin expression products.
Hemoglobin expression was measured by HPLC analysis for edited PBMCs as described above.

In experiment [4] the test system is CD34-expressing LT-HSPCs derived from human patients with sickle cell disease. As to the kind of experiment: Erythrocyte functionality: cell-surface markers and enucleation by flow cytometry. It counts as cell-based. Conditions: day 18 post editing. The protocol: The ability of edited cells to differentiate to functional erythrocytes was assessed by determining expression of erythrocyte-associated cell surface markers and enucleation using flow cytometry on day 18 post editing.
Briefly, 4×10^5 cells were obtained, and half were stained for erythrocyte cell-surface markers and half were used for detection of enucleation. For staining cell-surface markers, the cells were incubated in PBS containing 1% human serum albumin (PBS-A) and an antibody cocktail of anti-CD233 (BRIC6-Band3)-FITC, anti-CD71-PE, anti-CD235a(GlyA)-PE/Cy7, and anti-CD49d (a4)-VioBlue. For detection of enucleation, 2 drops of NucRed nuclear staining reagent was added to 1 mL PBS-A, and 100 μL was added to plated cells. Following incubation, both cell samples were labeled with Sytox Blue solution (1:1000 dilution in PBS-A) for live/dead analysis. Samples were then assessed by flow cytometry.
Background: Flow cytometry measures light scatter and fluorescence of single cells or particles in a stream.

Setting [5] is: 0.75 μg mRNA encoding i53, 5 μM Nu7441, control mRNA DM, FIG. 6C.
Where [6] appears, read: compared to mock EP control cells.

For `O=c1cc(N2CCOCC2)oc2c(-c3cccc4c3sc3ccccc34)cccc12` [Nu7441], in experiment [1], the “levels of erythroid cell enucleation” value is “similar”. Moreover, the HDR efficiency entry in the experiment with CD34-expressing LT-HSPCs (setting [5]) is reported as “comparable increase”.
“i53: polypeptide inhibitor of 53BP1 (SEQ ID NO: 70), introduced as an mRNA-encoded protein (ORF SEQ ID NO: 69)”: in experiment [1], the “levels of erythroid cell enucleation” value is reported as “similar”. Further, the “frequency of INDELs” value in the experiment with patient-derived PBMCs [2] (compared to control cells, FIG. 35B) is “reduced”. Besides, the “frequency of correction of the HBB gene by HDR repair” value with patient-derived PBMCs [2] (day 12, FIG. 35A) is “approximately 60%”. The “level of HDR repair and frequency of INDELs in HBB, PBMCs vs CD34-expressing LT-HSPCs” value in the experiment with patient-derived PBMCs [2] (edited in the presence of i53) was “comparable”. Moreover, in the experiment on patient-derived PBMCs [3] (setting [6]), the “expression of HbA” value was “increased” and the “expression of HbS” value was “significant reduction”. Moreover, the “ratio of HbS to HbA, PBMCs vs CD34-expressing LT-HSPCs” value in the experiment on patient-derived PBMCs [3] (edited in the presence of i53) is on record as “comparable”. The HDR efficiency result in the experiment on CD34-expressing LT-HSPCs (setting [5]) was “comparable increase”. Moreover, the “HDR efficiency at each dose” value with CD34-expressing LT-HSPCs (0.5, 1, and 2 μg i53 mRNA, FIG. 6A) is reported as “improved”. Also, in the experiment with CD34-expressing LT-HSPCs (GFP donor into HBB locus, mRNA encoding i53, over RNP+AAV-only, FIG. 6A), the “fold increase in HDR efficiency” value is “approximately 1.3 fold”. Also, in the experiment with CD34-expressing LT-HSPCs (mRNA-encoded proteins, i53 mRNA at 0.3 μg or 1 μg, over RNP+AAV-only, FIG. 6B), the HDR efficiency result is given as “increased”. Further, the “cell population having enucleation” value in experiment [4] (comparable to mock EP control cells) is listed as more than 30%. The “cell population CD71−GlyA+ erythrocytes” value in experiment [4] (similar to mock EP control cells) is more than 30%.
